{"source": "paper PMC12502564", "about": "“Evaluation of LLM-generated peptide as foundation template for discovery of effective encrypted AMPs against clinical superbugs” (Microbiology Spectrum, 2025)", "key": {"[1]": {"system": "all eight bacterial strains", "assay_type": "cell-based, gram-positive and gram-negative bacteria", "details": "judged from MICs on eight strains", "protocol": "(§1) The MIC of all peptides was determined using the microdilution broth method in a 96-well plate. Peptides were dissolved in the DMSO with an initial concentration of 12,800 µg mL^−1. And cells of eight strains were separately suspended in the MHB at a density of approximately 10^5 CFU mL^−1. In the first column of the 96-well plate, 16 µL of peptide and 184 µL of MHB were added to each well to achieve a final concentration of 1,024 µg mL^−1. One-hundred microliters of MHB was added to each of the remaining wells. Then the first column of liquid was mixed well and diluted to the 12th column using the twofold dilution method. One-hundred microliters of prepared bacterial solution was added to all wells, and the 96-well plate was incubated at 37°C for 18–24 h. The MIC was defined as the concentration of the peptide in the well just preceding the first well showing visible turbidity. All experiments were performed in triplicate to ensure reliability."}, "CRPA 2403282": {"system": "CRPA 2403282", "assay_type": "cell-based, carbapenem-resistant P. aeruginosa", "protocol": "as §1"}, "CRAB 2210186": {"system": "CRAB 2210186", "details": "10% fetal bovine serum, room temperature, 1–6 h, then MIC assay, triplicate", "experimental": "For serum sensitivity experiments, the peptide to be tested was incubated in 10% fetal bovine serum at room temperature for 1–6 h. After deactivation, the MICs of peptides against CRAB 2210186 and MRSA 2210187 were measured using the MIC assay. All experiments were performed in triplicate to ensure reliability."}, "CRAB": {"system": "CRAB", "experiment": "ROS accumulation assay (DCFH-DA)", "assay_type": "cell-based, carbapenem-resistant Acinetobacter baumannii", "details": "10 µM DCFH-DA, 2 h incubation", "protocol": "Bacteria in the logarithmic growth phase were prepared to OD600 = 0.5. Ten microliters of DCFH-DA was added to 190 µL of bacterial solution to a final concentration of 10 µM and incubated at 37°C for 30 min. After washing with PBS three times, 190 µL of probe-labeled bacterial cells were added to a 96-well plate, and 10 µL of the sample to be tested was added. After incubation for another 2 h, the fluorescence intensity was immediately measured using a microplate reader with an excitation wavelength of 488 nm and an emission wavelength of 525 nm. The antioxidant NAC (6 mM) was used as a control to neutralize the production of ROS."}}, "note": "No end group written: not given here."}
{"sequence": "WLKRILKWIGNKLKW [PL-15]", "values": [{"measurement": "antimicrobial spectrum", "setting": "[1]", "value": "broad-spectrum antimicrobial properties"}, {"measurement": "MIC", "setting": "CRPA 2403282", "value": 64, "unit": "µg/mL"}, {"measurement": "fold change in MIC after incubation in serum", "setting": "CRAB 2210186", "value": "maximum twofold increase"}, {"measurement": "ROS levels (DCF fluorescence)", "setting": "CRAB", "value": "concentration-dependent surge in ROS levels"}]}
